For 22 molecules, IC50 results are on record in patent US9580437B2, “Triazolopyrimidine compounds and uses thereof” (Novartis AG, priority 2014, dated 2017).

Assay [1] concerns the target wild type PRC2 (wtPRC2) complex (Homo sapiens (Human), UniProt O75530). The assay can be described thus: EED LC-MS assay. It is filed as biochemical. The note with it: read-out: (b) IC50 EED LC-MS Qualified. The procedure: A 6 μL solution of 3 μM of the peptide substrate H3K27Me0 (histone H3[21-44]-biotin) in reaction buffer was added to initiate each reaction. […] ELISA (H3K27 Methylation) Assay

The target in assay [2] is EED (1-441)-His protein (Homo sapiens (Human), UniProt O75530). The assay can be described thus: EED-H3K27Me3 peptide competition binding assay by AlphaScreen. As to conditions: read-out: (a) IC50 EED Alphascreen binding Qualified. From the text:
EED-H3K27Me3 peptide competition binding assay by AlphaScreen (α-screen)

EED (1-441)-His protein, sequence (O75530 whole entry): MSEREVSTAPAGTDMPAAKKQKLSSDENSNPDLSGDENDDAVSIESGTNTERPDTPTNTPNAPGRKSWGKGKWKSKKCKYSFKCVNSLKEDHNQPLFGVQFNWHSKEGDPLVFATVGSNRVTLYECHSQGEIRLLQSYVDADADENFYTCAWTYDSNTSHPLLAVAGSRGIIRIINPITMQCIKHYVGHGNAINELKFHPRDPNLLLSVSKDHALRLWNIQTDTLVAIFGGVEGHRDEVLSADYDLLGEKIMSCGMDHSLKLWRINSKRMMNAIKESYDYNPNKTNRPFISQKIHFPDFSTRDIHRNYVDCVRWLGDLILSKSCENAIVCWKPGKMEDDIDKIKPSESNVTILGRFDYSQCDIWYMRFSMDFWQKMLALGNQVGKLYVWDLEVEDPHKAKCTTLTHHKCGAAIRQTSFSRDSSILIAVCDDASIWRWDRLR
wild type PRC2 (wtPRC2) complex, sequence (O75530 whole entry): as above
wild type PRC2 (wtPRC2) complex, sequence (Q15910 whole entry partner): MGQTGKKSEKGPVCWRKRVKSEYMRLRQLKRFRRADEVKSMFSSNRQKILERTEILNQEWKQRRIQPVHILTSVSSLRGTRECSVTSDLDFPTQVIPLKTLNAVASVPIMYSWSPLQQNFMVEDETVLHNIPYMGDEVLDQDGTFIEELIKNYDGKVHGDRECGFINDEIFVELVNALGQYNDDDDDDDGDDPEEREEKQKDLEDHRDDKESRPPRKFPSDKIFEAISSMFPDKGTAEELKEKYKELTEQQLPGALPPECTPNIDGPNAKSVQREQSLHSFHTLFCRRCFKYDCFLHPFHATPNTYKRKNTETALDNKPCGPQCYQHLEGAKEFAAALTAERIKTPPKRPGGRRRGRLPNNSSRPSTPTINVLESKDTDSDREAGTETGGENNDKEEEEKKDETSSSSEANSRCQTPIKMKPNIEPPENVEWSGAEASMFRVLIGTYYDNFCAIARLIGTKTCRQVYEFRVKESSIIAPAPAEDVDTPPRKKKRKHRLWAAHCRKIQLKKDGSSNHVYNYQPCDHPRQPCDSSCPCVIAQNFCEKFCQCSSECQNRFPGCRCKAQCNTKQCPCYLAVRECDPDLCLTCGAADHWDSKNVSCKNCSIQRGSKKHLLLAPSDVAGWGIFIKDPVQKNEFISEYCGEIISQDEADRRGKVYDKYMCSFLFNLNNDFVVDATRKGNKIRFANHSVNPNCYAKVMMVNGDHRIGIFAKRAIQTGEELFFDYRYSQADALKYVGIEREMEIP
wild type PRC2 (wtPRC2) complex, sequence (Q15022 whole entry partner): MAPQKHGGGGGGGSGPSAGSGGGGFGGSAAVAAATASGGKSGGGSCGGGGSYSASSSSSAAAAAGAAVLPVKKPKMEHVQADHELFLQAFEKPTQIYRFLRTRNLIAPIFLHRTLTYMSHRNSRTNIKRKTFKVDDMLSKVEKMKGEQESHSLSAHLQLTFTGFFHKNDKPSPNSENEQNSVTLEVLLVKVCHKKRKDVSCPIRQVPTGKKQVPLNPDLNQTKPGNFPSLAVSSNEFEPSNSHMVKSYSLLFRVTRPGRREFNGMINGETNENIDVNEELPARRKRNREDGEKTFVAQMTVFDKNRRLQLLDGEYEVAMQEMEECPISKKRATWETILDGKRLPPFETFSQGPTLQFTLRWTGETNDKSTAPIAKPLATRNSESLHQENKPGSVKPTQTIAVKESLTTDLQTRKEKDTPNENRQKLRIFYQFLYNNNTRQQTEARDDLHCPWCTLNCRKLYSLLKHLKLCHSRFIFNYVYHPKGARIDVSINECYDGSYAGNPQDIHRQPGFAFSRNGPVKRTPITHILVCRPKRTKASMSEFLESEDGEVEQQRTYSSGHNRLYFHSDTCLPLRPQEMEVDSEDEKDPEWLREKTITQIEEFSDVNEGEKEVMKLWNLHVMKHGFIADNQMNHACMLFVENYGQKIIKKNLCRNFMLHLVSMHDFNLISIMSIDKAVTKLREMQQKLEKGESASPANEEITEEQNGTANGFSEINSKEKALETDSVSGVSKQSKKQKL

Turning to `Cc1cnc(C(F)(F)F)cc1-c1cnc(NCc2c(F)ccc3c2CCO3)n2cnnc12` [Example 184, N-((5-fluoro-2,3-dihydrobenzofuran-4-yl)methyl)-8-(5-methyl-2-(trifluoromethyl)pyridin-4-yl)-[1,2,4]triazolo[4,3-c]pyrimidin-5-amine], the figures for the IC50 in assay [1] and in assay [2] were 13.2 nM and 5.4 nM, respectively.

Turning to `CCn1nccc1-c1cnc(NCc2c(F)ccc3c2CCO3)n2cnnc12` [Example 143, 8-(1-ethyl-1H-pyrazol-5-yl)-N-((5-fluoro-2,3-dihydrobenzofuran-4-yl)methyl)-[1,2,4]triazolo[4,3-c]pyrimidin-5-amine], the half-inhibitory concentration (IC50) in assay [1] came out at 31.5 nM; in assay [2], 18.1 nM.

In the case of `OCCOc1ccc(-c2cnc(NCc3cccc4c3CCO4)n3cnnc23)cc1` [Example 38, 2-(4-(5-(((2,3-dihydrobenzofuran-4-yl)methyl)amino)-[1,2,4]triazolo[4,3-c]pyrimidin-8-yl)phenoxy)ethanol], the values for the IC50 in assay [1] and in assay [2] were 34.9 nM and 24.2 nM, respectively.

In the case of `Cc1cc(OC(F)F)ncc1-c1cnc(NCc2c(F)ccc3c2CCO3)n2cnnc12` [Example 197, 8-(6-(difluoromethoxy)-4-methylpyridin-3-yl)-N-((5-fluoro-2,3-dihydrobenzofuran-4-yl)methyl)-[1,2,4]triazolo[4,3-c]pyrimidin-5-amine], the 50% inhibitory concentration (IC50) in assay [1] turned out to be 5.7 nM; in assay [2], 2.2 nM.

Turning to `Fc1ccc2c(c1CNc1ncc(F)c3nncn13)CCO2` [Example 235, 8-fluoro-N-((5-fluoro-2,3-dihydrobenzofuran-4-yl)methyl)-[1,2,4]triazolo[4,3-c]pyrimidin-5-amine], the results for the 50% inhibitory concentration (IC50) in assay [1] and in assay [2] were 65.3 nM and 39.9 nM, respectively.

In the case of `Cc1nn(CCO)c(C)c1-c1cnc(NCc2cccc3c2CCO3)n2cnnc12` [Example 67, 2-(4-(5-(((2,3-dihydrobenzofuran-4-yl)methyl)amino)-[1,2,4]triazolo[4,3-c]pyrimidin-8-yl)-3,5-dimethyl-1H-pyrazol-1-yl)ethanol], the half-inhibitory concentration (IC50) stood at 90.2 nM in assay [1] and 30.9 nM in assay [2].

For `Cc1noc(C)c1-c1cnc(NCc2cccc3c2CCO3)n2cnnc12` [Example 59, N-((2,3-dihydrobenzofuran-4-yl)methyl)-8-(3,5-dimethylisoxazol-4-yl)-[1,2,4]triazolo[4,3-c]pyrimidin-5-amine], the IC50 is 38.7 nM in assay [1] and 31.8 nM in assay [2].

In the case of `COc1ncc(-c2cnc(NCc3cccc4c3CCO4)n3cnnc23)cn1` [Example 54, N-((2,3-dihydrobenzofuran-4-yl)methyl)-8-(2-methoxypyrimidin-5-yl)-[1,2,4]triazolo[4,3-c]pyrimidin-5-amine], the values for the IC50 in assay [1] and in assay [2] were 54.6 nM and 29.1 nM, respectively.

`Cc1ccc(-c2cnc(NCc3cccc4c3CCO4)n3cnnc23)cn1` [Example 52, N-((2,3-dihydrobenzofuran-4-yl)methyl)-8-(6-methylpyridin-3-yl)-[1,2,4]triazolo[4,3-c]pyrimidin-5-amine]: the figures for the half-inhibitory concentration (IC50) in assay [1] and in assay [2] were 47 nM and 70.9 nM, respectively.

As to `CN(C)CCN(C)C(=O)c1ccc(-c2cnc(NCc3cccc4c3CCO4)n3cnnc23)cn1` [Example 102], the half-maximal inhibitory concentration (IC50) was 68.8 nM in assay [1] and 33.9 nM in assay [2].

`COc1ccc(-c2cnc(NCc3cccc4c3CCO4)n3cnnc23)cn1` [Example 21, N-((2,3-dihydrobenzofuran-4-yl)methyl)-8-(6-methoxypyridin-3-yl)-[1,2,4]triazolo[4,3-c]pyrimidin-5-amine]: the 50% inhibitory concentration (IC50) in assay [1] amounted to 26 nM; in assay [2], 25.2 nM.

Regarding `Cn1nccc1-c1cnc(NCc2c(F)ccc3c2CCO3)n2cnnc12` [Example 169, N-((5-fluoro-2,3-dihydrobenzofuran-4-yl)methyl)-8-(1-methyl-1H-pyrazol-5-yl)-[1,2,4]triazolo[4,3-c]pyrimidin-5-amine], the IC50 in assay [1] turned out to be 6.6 nM; in assay [2], 4.5 nM.

Consider `Cc1cnn(-c2cnc(NCc3c(F)ccc4c3CCO4)n3cnnc23)c1` [Example 239, N-((5-fluoro-2,3-dihydrobenzofuran-4-yl)methyl)-8-(4-methyl-1H-pyrazol-1-yl)-[1,2,4]triazolo[4,3-c]pyrimidin-5-amine], for which the IC50 is 15.9 nM in assay [1] and 6.8 nM in assay [2].

On to `CNc1cc(F)c(-c2cnc(NCc3cccc4c3CCO4)n3cnnc23)cn1` [Example 111, N-((2,3-dihydrobenzofuran-4-yl)methyl)-8-(4-fluoro-6-(methylamino)pyridin-3-yl)-[1,2,4]triazolo[4,3-c]pyrimidin-5-amine], for which the IC50 worked out at 17.4 nM in assay [1] and 19 nM in assay [2].

As for `CN(C)Cc1ccc(-c2cnc(NCc3cccc4c3CCO4)n3cnnc23)cc1` [Example 11, N-((2,3-dihydrobenzofuran-4-yl)methyl)-8-(4-((dimethylamino)methyl)phenyl)-[1,2,4]triazolo[4,3-c]pyrimidin-5-amine], the concentration for half-maximal inhibition (IC50) in assay [1] is 20 nM; in assay [2] it was 6.9 nM.

As to `O=S(=O)(NCCO)c1ccc(-c2cnc(NCc3cccc4c3CCO4)n3cnnc23)cc1` [Example 40, 4-(5-(((2,3-dihydrobenzofuran-4-yl)methyl)amino)-[1,2,4]triazolo[4,3-c]pyrimidin-8-yl)-N-(2-hydroxyethyl)benzenesulfonamide], the figures for the 50% inhibitory concentration (IC50) in assay [1] and in assay [2] were 56.6 nM and 56.2 nM, respectively.

`Cc1cnc(C(F)F)cc1-c1cnc(NCc2c(F)ccc3c2CCO3)n2cnnc12` [Example 198, 8-(2-(difluoromethyl)-5-methylpyridin-4-yl)-N-((5-fluoro-2,3-dihydrobenzofuran-4-yl)methyl)-[1,2,4]triazolo[4,3-c]pyrimidin-5-amine]: the IC50 in assay [1] came to 17.3 nM; in assay [2], 4.4 nM.

Consider `Fc1ccc2c(c1CNc1ncc(-c3ccc(N4CCSCC4)nc3)c3nncn13)CCO2` [Example 91, N-((5-fluoro-2,3-dihydrobenzofuran-4-yl)methyl)-8-(6-thiomorpholinopyridin-3-yl)-[1,2,4]triazolo[4,3-c]pyrimidin-5-amine], for which the 50% inhibitory concentration (IC50) came out at 15.3 nM in assay [1] and 9.9 nM in assay [2].

Regarding `CN(C)Cc1ccc(-c2cnc(NCc3c(F)ccc4occc34)n3cnnc23)cc1` [Example 219, 8-(4-((dimethylamino)methyl)phenyl)-N-((5-fluorobenzofuran-4-yl)methyl)-[1,2,4]triazolo[4,3-c]pyrimidin-5-amine], the IC50 was found to be 6.8 nM in assay [1] and 6.5 nM in assay [2].

As to `COCCn1nc(C)c(-c2cnc(NCc3c(F)ccc4c3CCO4)n3cnnc23)c1C` [Example 159, N-((5-fluoro-2,3-dihydrobenzofuran-4-yl)methyl)-8-(1-(2-methoxyethyl)-3,5-dimethyl-1H-pyrazol-4-yl)-[1,2,4]triazolo[4,3-c]pyrimidin-5-amine], the half-maximal inhibitory concentration (IC50) was determined as 10.3 nM in assay [1] and 5 nM in assay [2].

For the molecule `Fc1ccc2c(c1CNc1ncc(-c3ccnn3C3CC3)c3nncn13)CCO2` [Example 192, 8-(1-cyclopropyl-1H-pyrazol-5-yl)-N-((5-fluoro-2,3-dihydrobenzofuran-4-yl)methyl)-[1,2,4]triazolo[4,3-c]pyrimidin-5-amine], the figures for the 50% inhibitory concentration (IC50) in assay [1] and in assay [2] were 12.6 nM and 3.5 nM, respectively.

Take `c1cc(CNc2ncc(-c3ccc(N4CCOCC4)nc3)c3nncn23)c2c(c1)OCC2` [Example 69, N-((2,3-dihydrobenzofuran-4-yl)methyl)-8-(6-morpholinopyridin-3-yl)-[1,2,4]triazolo[4,3-c]pyrimidin-5-amine]: the concentration for half-maximal inhibition (IC50) came to 377 nM in assay [1] and 182 nM in assay [2].
